From ChEMBL document CHEMBL2062514 (J Med Chem, 2012)

Legend:
Adenosine receptor A2a [1] = biological target: T1, Adenosine receptor A2a (Homo sapiens, UniProt P29274); test: Displacement of [3H]CGS21680 from human recombinant adenosine A2A receptor expressed in HEK293 cells at 10 uM after 60 mins by liquid scintillation counting; type: cell-based
[2] = biological target: T2, Adenosine receptor A1 (Homo sapiens) (UniProt P30542); test: Displacement of [3H]R-PIA from human recombinant adenosine A1 receptor expressed in CHO cells at 10 uM after 60 mins by liquid scintillation counting; type: cell-based
T2 sequence (whole entry): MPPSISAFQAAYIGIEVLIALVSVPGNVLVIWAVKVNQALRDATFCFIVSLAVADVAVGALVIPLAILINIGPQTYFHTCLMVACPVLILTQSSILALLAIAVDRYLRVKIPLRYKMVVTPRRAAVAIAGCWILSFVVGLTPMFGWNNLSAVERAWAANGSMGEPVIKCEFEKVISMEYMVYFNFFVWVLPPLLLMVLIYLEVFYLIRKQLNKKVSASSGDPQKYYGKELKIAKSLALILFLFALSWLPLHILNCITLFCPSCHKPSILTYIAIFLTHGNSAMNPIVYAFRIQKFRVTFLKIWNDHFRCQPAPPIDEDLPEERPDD

[3] = biological target: T3, Adenosine receptor A3 (Homo sapiens) (UniProt P0DMS8); test: Agonist activity at human recombinant adenosine A3 receptor expressed in CHO cells assessed as inhibition of forskolin-stimulated cAMP production at 10 uM incubated for 30 mins prior to forskolin-stimulation measured after 15 mins by enzyme immunoassay relative to NECA; type: functional, cell-based
T3 sequence (whole entry): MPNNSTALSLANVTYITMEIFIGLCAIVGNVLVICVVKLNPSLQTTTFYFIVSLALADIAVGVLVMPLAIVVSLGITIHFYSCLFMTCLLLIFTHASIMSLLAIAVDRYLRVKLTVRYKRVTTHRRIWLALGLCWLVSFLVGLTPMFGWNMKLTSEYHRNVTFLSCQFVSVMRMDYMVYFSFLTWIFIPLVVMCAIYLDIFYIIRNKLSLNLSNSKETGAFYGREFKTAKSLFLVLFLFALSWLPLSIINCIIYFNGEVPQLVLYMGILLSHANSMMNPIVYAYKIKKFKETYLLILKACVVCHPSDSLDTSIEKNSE

[4] = biological target: T4, Adenosine receptor A2b (Homo sapiens) (UniProt P29275); test: Agonist activity at human adenosine A2B receptor by cAMP accumulation assay relative to NECA; type: functional
T4 sequence (whole entry): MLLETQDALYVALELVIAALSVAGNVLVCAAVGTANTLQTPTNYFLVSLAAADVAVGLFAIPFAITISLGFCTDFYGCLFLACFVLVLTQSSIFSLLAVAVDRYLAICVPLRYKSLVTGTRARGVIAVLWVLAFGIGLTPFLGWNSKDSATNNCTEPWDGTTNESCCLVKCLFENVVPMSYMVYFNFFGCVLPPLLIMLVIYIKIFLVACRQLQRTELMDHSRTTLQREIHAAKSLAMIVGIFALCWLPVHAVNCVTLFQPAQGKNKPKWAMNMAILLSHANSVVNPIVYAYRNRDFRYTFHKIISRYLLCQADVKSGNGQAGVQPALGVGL

Adenosine receptor A2a [5] = biological target: T1, Adenosine receptor A2a; test: Displacement of [3H]CGS21680 from human recombinant adenosine A2A receptor expressed in HEK293 cells after 60 mins by liquid scintillation counting; type: cell-based
[6] = Selectivity ratio of Ki for mouse adenosine A3 receptor to Ki for human recombinant adenosine A3 receptor
[7] = biological target: Adenosine receptor A2a (Mus musculus) (UniProt Q60613); test: Displacement of [3H]CGS21680 from mouse adenosine A2A receptor expressed in HEK293 cells at 10 uM after 60 mins by liquid scintillation counting
Adenosine receptor A2a (Mus musculus), sequence (Q60613 whole entry): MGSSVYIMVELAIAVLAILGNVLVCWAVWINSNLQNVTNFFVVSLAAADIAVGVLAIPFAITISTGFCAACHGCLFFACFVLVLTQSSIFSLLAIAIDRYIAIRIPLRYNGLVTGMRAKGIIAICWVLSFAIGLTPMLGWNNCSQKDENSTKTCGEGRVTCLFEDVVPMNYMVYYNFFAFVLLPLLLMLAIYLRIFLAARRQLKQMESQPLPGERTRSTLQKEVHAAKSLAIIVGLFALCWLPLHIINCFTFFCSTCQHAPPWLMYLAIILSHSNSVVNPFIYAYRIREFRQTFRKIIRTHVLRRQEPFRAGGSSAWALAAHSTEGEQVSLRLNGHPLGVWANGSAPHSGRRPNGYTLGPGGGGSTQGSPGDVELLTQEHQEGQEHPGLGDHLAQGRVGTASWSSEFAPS

Adenosine receptor A3 = biological target: T5, Adenosine receptor A3 (Mus musculus, UniProt Q61618); test: Displacement of [125I]I-AB-MECA from mouse adenosine A3 receptor expressed in HEK293 cells after 60 mins by liquid scintillation counting
T5 sequence (Q61618 whole entry): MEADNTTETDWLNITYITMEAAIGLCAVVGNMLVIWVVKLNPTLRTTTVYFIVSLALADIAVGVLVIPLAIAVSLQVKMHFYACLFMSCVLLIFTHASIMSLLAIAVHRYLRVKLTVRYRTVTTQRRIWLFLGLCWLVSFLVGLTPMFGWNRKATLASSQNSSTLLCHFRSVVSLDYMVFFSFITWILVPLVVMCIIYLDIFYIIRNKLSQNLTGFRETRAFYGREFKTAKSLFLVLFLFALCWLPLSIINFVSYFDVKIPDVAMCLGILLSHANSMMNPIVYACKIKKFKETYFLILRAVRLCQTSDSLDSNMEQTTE

[8] = biological target: T6, Adenosine receptor A1 (Mus musculus) (UniProt Q60612); test: Displacement of from mouse adenosine A1 receptor expressed in HEK293 cells at 10 uM after 60 mins by liquid scintillation counting; parameters: reference not given here
T6 sequence (whole entry): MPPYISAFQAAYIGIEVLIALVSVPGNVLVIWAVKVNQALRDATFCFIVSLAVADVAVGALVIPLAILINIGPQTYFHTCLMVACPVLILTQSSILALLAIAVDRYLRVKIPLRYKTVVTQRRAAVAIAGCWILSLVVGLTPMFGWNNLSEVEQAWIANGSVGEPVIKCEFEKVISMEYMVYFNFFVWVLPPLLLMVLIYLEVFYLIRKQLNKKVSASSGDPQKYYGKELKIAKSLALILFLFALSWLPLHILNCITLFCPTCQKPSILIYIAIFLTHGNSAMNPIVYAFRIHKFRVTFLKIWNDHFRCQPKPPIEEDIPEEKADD

T1 sequence (P29274 whole entry): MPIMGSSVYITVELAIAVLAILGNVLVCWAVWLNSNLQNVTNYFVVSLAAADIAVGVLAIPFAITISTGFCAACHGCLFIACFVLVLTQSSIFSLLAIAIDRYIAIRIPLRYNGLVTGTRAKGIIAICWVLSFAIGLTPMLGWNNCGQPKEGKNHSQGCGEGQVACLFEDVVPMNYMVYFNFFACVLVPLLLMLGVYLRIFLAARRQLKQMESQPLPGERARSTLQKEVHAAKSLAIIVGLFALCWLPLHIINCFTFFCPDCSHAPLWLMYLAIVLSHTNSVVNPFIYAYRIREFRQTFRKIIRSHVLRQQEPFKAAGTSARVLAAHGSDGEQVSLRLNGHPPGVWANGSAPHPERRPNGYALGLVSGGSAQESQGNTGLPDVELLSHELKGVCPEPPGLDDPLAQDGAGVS

Structure (SMILES) | inhibition (Adenosine receptor A2a [1]) | inhibition [2] | Efficacy [3] | Efficacy [4] | Ki (Adenosine receptor A2a [5]) | Ratio Ki [6] | inhibition [7] | Ki (Adenosine receptor A3) | inhibition [8]
CNC(=O)[C@@]12C[C@@H]1[C@@H](n1cnc3c(NC)nc(C#Cc4ccc(Br)cc4)nc31)[C@H](O)[C@@H]2O | 26% | 13% | 97.5% | – | – | – | – | – | –
CNC(=O)[C@@]12C[C@@H]1[C@@H](n1cnc3c(NC)nc(C#Cc4ccc(C(C)=O)cc4)nc31)[C@H](O)[C@@H]2O | – | 15% | 87.4% | 20% | 5300 nM | – | – | – | –
CNC(=O)[C@@]12C[C@@H]1[C@@H](n1cnc3c(NC)nc(C#Cc4ccc(C(C)(C)C)cc4)nc31)[C@H](O)[C@@H]2O | 7% | 23% | 78.4% | – | – | – | – | – | –
CNC(=O)[C@@]12C[C@@H]1[C@@H](n1cnc3c(NC)nc(C#Cc4ccc(F)cc4)nc31)[C@H](O)[C@@H]2O | 19% | 21% | 80.3% | – | – | 70 | 0% | 37.7 nM | 29%
CNC(=O)[C@@]12C[C@@H]1[C@@H](n1cnc3c(NCc4cccc(Cl)c4)nc(C#Cc4ccc5ccc6cccc7ccc4c5c67)nc31)[C@H](O)[C@@H]2O | – | 8% | 77.8% | 20% | 3110 nM | – | 64% | 47.6 nM | 8%
CNC(=O)[C@@]12C[C@@H]1[C@@H](n1cnc3c(NCc4cccc(Cl)c4)nc(C#Cc4ccc(-c5ccccc5)cc4)nc31)[C@H](O)[C@@H]2O | 0% | 2% | 89% | – | – | 3 | 6% | 10.8 nM | 41%
CNC(=O)[C@@]12C[C@@H]1[C@@H](n1cnc3c(NC)nc(C#Cc4cccc5ccccc45)nc31)[C@H](O)[C@@H]2O | 34% | 25% | 94.6% | – | – | – | – | – | –
CNC(=O)[C@@]12C[C@@H]1[C@@H](n1cnc3c(NCc4cccc(I)c4)ncnc31)[C@H](O)[C@@H]2O | – | – | 100% | – | – | – | – | – | –
CNC(=O)[C@@]12C[C@@H]1[C@@H](n1cnc3c(NCc4cccc(Cl)c4)nc(C#Cc4cccc(Cl)c4)nc31)[C@H](O)[C@@H]2O | – | 4% | 91.5% | 20% | 1740 nM | – | 55% | 2.39 nM | 35%
CNC(=O)[C@@]12C[C@@H]1[C@@H](n1cnc3c(NC)nc(C#Cc4ccccc4F)nc31)[C@H](O)[C@@H]2O | 17% | 21% | 97.7% | – | – | – | – | – | –
CNC(=O)[C@@]12C[C@@H]1[C@@H](n1cnc3c(NC)nc(C#Cc4ccccn4)nc31)[C@H](O)[C@@H]2O | 13% | 11% | – | – | – | – | – | – | –
CCc1ccc(C#Cc2nc(NC)c3ncn([C@H]4[C@H](O)[C@H](O)[C@]5(C(=O)NC)C[C@H]45)c3n2)cc1 | 38% | 13% | 110% | – | – | – | – | – | –
CNC(=O)[C@@]12C[C@@H]1[C@@H](n1cnc3c(NCc4cccc(Cl)c4)nc(C#Cc4ccc(F)c(F)c4)nc31)[C@H](O)[C@@H]2O (single isomer, unassigned) | 41% | 6% | – | 20% | – | – | 27% | – | 14%
CNC(=O)[C@@]12C[C@@H]1[C@@H](n1cnc3c(NCc4cccc(Cl)c4)nc(C#Cc4cccc(C(=O)O)c4)nc31)[C@H](O)[C@@H]2O | 38% | 6% | 86.7% | – | – | – | 22% | 3.66 nM | 18%
CNC(=O)[C@@]12C[C@@H]1[C@@H](n1cnc3c(NC)nc(C#Cc4ccccc4Cl)nc31)[C@H](O)[C@@H]2O | 30% | 27% | 84.2% | – | – | 70 | 2% | 37.2 nM | 55%
CNC(=O)[C@@]12C[C@@H]1[C@@H](n1cnc3c(NC)nc(C#Cc4cccc(F)c4)nc31)[C@H](O)[C@@H]2O | 10% | 12% | 95.8% | – | – | – | – | – | –
CNC(=O)[C@@]12C[C@@H]1[C@@H](n1cnc3c(NC)nc(C#Cc4cccc(Cl)c4)nc31)[C@H](O)[C@@H]2O | – | 10% | 90.9% | 20% | – | – | – | – | –
CNC(=O)[C@@]12C[C@@H]1[C@@H](n1cnc3c(NC)nc(C#Cc4cc(F)cc(F)c4)nc31)[C@H](O)[C@@H]2O | 47% | 8% | 99.6% | – | – | – | – | – | –
CNC(=O)[C@@]12C[C@@H]1[C@@H](n1cnc3c(NC)nc(C#Cc4cc5ccccc5c5ccccc45)nc31)[C@H](O)[C@@H]2O | 52% | 15% | 108% | – | – | – | – | – | –
CNC(=O)[C@@]12C[C@@H]1[C@@H](n1cnc3c(NC)nc(C#Cc4ccccc4)nc31)[C@H](O)[C@@H]2O | 14% | 13% | – | – | – | – | – | – | –
CNC(=O)[C@@]12C[C@@H]1[C@@H](n1cnc3c(NC)nc(C#Cc4cccc(N)c4)nc31)[C@H](O)[C@@H]2O | 19% | 10% | 109% | – | – | – | – | – | –
CNC(=O)[C@@]12C[C@@H]1[C@@H](n1cnc3c(NC)nc(C#Cc4ccc(-c5ccccc5)cc4)nc31)[C@H](O)[C@@H]2O | 29% | 21% | 110% | – | – | – | – | – | –
CNC(=O)[C@@]12C[C@@H]1[C@@H](n1cnc3c(NCc4cccc(Cl)c4)nc(C#Cc4ccccc4)nc31)[C@H](O)[C@@H]2O | 27% | 20% | 101% | – | – | – | 2% | – | 50%
CNC(=O)[C@@]12C[C@@H]1[C@@H](n1cnc3c(NC)nc(C#Cc4ccc(Cl)cc4)nc31)[C@H](O)[C@@H]2O | 30% | 14% | 97.4% | – | – | – | – | – | –
CNC(=O)[C@@]12C[C@@H]1[C@@H](n1cnc3c(NC)nc(C#Cc4ccc(F)c(F)c4)nc31)[C@H](O)[C@@H]2O | 6% | 6% | 108% | – | – | – | – | – | –
CNC(=O)[C@@]12C[C@@H]1[C@@H](n1cnc3c(NCc4cccc(Cl)c4)nc(C#Cc4ccc(F)cc4)nc31)[C@H](O)[C@@H]2O | 42% | 20% | 102% | 20% | – | – | 7% | 2.38 nM | 65%
CNC(=O)[C@@]12C[C@@H]1[C@@H](n1cnc3c(NCc4cccc(Cl)c4)nc(C#Cc4ccccc4Cl)nc31)[C@H](O)[C@@H]2O | 52% | 19% | 103% | – | – | – | 19% | 2.64 nM | 51%
